Entries after “also recorded” stand apart in the source; their conditions may differ.
Columns and labels:
[1] = tested on: J774.A1 macrophages; parameters: method as in PMID 33590474; conditions: highest concentration tested 75 µM, previously determined in collaboration with Jacob et al., ref [20]; cited from earlier work
[2] = tested on: L. infantum axenic amastigotes; test: Ultrastructural analysis (SEM/TEM) of axenic amastigote forms; format: cell-based, Leishmania infantum; conditions: 1× and 2× IC50 (Amphotericin B 1× IC50), 72 h
Description: Differentiation of L. infantum promastigote forms into axenic amastigote forms was carried out according to the protocol by Oliveira et al., with adaptations. Stationary-phase promastigotes (72 h) were cultured in modified Schneider’s Drosophila medium supplemented with 10% fetal bovine serum (FBS) at 26 °C. Cells were collected by centrifugation (3000× g for 10 min at 4 °C), washed three times with PBS (150 mM NaCl, 20 mM phosphate buffer, pH 7.2), and adjusted to 1 × 10^6 cells/mL. Differentiation was induced in acidified Schneider’s medium (pH 5.5), supplemented with 2.5% FBS, incubated at 32 °C for seven days.
Axenic amastigotes were obtained from stationary-phase promastigotes of L. infantum following standard differentiation protocols. The cultures were maintained under controlled conditions and monitored daily by optical microscopy. Morphological observations confirmed the transition from elongated promastigotes to rounded amastigote-like forms with internalized or absent flagella. […] Cultures were regularly examined for microbial contamination, and no evidence of bacterial or fungal contamination was detected during the differentiation or experimental periods. Axenic amastigotes were exposed to compounds LT-73 and LT-75 at concentrations corresponding to the IC50 and 2× IC50, previously determined for promastigotes based on leishmanicidal activity, for analysis by scanning (SEM) and transmission electron microscopy (TEM). […]
After this period, cells were washed with PBS (phosphate-buffered saline) and fixed in a solution containing 2.5% glutaraldehyde and 4% formaldehyde in 0.1 M phosphate buffer (pH 7.4) for 24 h at 4 °C. […] Sections were contrasted with 2% uranyl acetate for 30 min and 2.5% lead citrate for 10 min, then analyzed using a Tecnai G2 Spirit TEM (FEI). […]
(§1) All images were acquired under standardized laboratory protocols. A minimum of 50 parasites per condition were analyzed by two blinded investigators and no visible precipitation or crystallization occurred during fixation.

[3] = tested on: L. infantum promastigote cells; test: Mitochondrial membrane potential (Rhodamine 123, flow cytometry); format: cell-based, Leishmania infantum; conditions: for Variability Index (VI), range: range over the tested concentrations (1× and 2× IC50; H2O2 control)
Description: To evaluate the effects of compounds on the mitochondrial membrane potential (ΔΨm) of Leishmania infantum, the cationic probe Rhodamine 123 (Rod 123) was used through quantitative flow cytometry analysis. […] After incubation, cells were centrifuged at 3000× g for 5 min, and supernatants discarded. […] Hydrogen peroxide (H2O2) at 1 μM was used as positive control, previously described in the literature as an inducer of mitochondrial potential loss. Cells were analyzed by flow cytometry on the FACSCalibur equipment (Becton & Dickinson, San José, CA, USA), with excitation at 488 nm and detection at 505/534 nm. Fifty thousand events per sample were acquired. Data were expressed as percentage of cells stained with Rhodamine 123 for each tested condition. Fluorescence variation was quantified by Variation Index (VI), calculated by the equation: VI = (MT − MC)/MC, where MT corresponds to the median fluorescence of treated cells and MC to the median of control cells (untreated).

[4] = tested on: L. infantum promastigotes; test: Apoptosis/necrosis by annexin V-FITC and propidium iodide flow cytometry; format: cell-based, Leishmania infantum; conditions: 1× and 2× IC50, 72 h
Description: To evaluate cell death types induced by the compounds, promastigote forms of Leishmania infantum (2 × 10^6 cells/mL) were treated with concentrations corresponding to 1× and 2× IC50 of compounds LT-73 and LT-75 for 72 h. After incubation, cells were centrifuged at 3000× g for 5 min, washed with PBS, and subsequently with 1× Buffer Solution provided by the Annexin V-FITC apoptosis detection kit (BD Biosciences, San Jose, CA, USA). Cells were then resuspended in 100 µL Buffer Solution and stained with 5 µL Annexin V conjugated to FITC, incubated for 15 min at room temperature protected from light. After incubation, cells were washed again with 1× Buffer Solution and resuspended in 200 µL of the same buffer. Subsequently, 5 µL propidium iodide (PI) were added to each sample for identification of cells with compromised membrane integrity. Samples were transferred to flow cytometry tubes and analyzed on the FACSCalibur flow cytometer (Becton Dickinson, San José, CA, USA) equipped with CellQuest PRO Software (BD Biosciences; version 5.1), within 4 h after staining. Annexin V-FITC was excited at 488 nm, with fluorescence detected at 530/30 nm; propidium iodide (PI) was excited at 488 nm and detected at 585/42 nm. Single-stained controls for Annexin V-FITC and PI were included in order to apply spillover correction (compensation) between channels.

[5] = tested on: L. infantum promastigote forms; test: Ultrastructural analysis (SEM/TEM) of promastigote forms; format: cell-based, Leishmania infantum; conditions: promastigotes, 1× and 2× IC50 (Amphotericin B 1× IC50), 72 h
Description: Ultrastructural analysis of promastigote and axenic amastigote forms of L. infantum was performed as described by Silva et al., with adaptations. Promastigote and amastigote forms were cultured in modified Schneider’s medium supplemented with 10% fetal bovine serum (FBS), in a BOD incubator at 26 °C and 32 °C, respectively, until reaching the stationary growth phase (72 h). After adjusting cell concentration to 1 × 10^7 cells/mL, samples were incubated with compounds LT-73, LT-75, and amphotericin B at concentrations corresponding to the IC50 and 2× IC50 previously determined, as well as a DMSO control (1% diluted), for 72 h. During incubation, daily microscopic monitoring of cell morphology was performed.
After this period, cells were washed with PBS (phosphate-buffered saline) and fixed in a solution containing 2.5% glutaraldehyde and 4% formaldehyde in 0.1 M phosphate buffer (pH 7.4) for 24 h at 4 °C. For transmission electron microscopy (TEM), cells were post-fixed in 1% osmium tetroxide (OsO4) for 2 h in 0.1 M phosphate buffer (pH 7.2), dehydrated in increasing acetone series (30%, 50%, 70%, 90%, and 3× 100%), embedded in EPON resin, and subjected to ultrathin sectioning using an ultramicrotome. Sections were contrasted with 2% uranyl acetate for 30 min and 2.5% lead citrate for 10 min, then analyzed using a Tecnai G2 Spirit TEM (FEI).
For scanning electron microscopy (SEM), after primary fixation, cells were adhered to coverslips pre-treated with poly-L-lysine for 30 min. Then, cells were washed three times with 0.1 M phosphate buffer (pH 7.2), post-fixed in 1% OsO4 for 2 h, dehydrated in increasing ethanol series (30%, 50%, 70%, 90%, and 3× 100%), subjected to critical point drying using an HCP-2 device (Hitachi (Tokyo, Japan)), and gold-coated (20 nm) using a JFC-1100 device ((JEOL Ltd., Tokyo, Japan)). […]
as §1

SMILES | CC50 [1] | TEM ultrastructural alterations [2] | Mean (Rho 123 fluorescence) ([3]; 1× IC50, 72 h) | Variation (Variation Index, VI = (MT − MC)/MC) ([3]; 1× IC50, 72 h) | Mean (Rho 123 fluorescence) ([3]; 2× IC50, 72 h) | Variation (Variation Index, VI = (MT − MC)/MC) ([3]; 2× IC50, 72 h) | Variability Index (VI), range [3] | Cell death profile by annexin V/PI staining (in words) [4] | TEM ultrastructural alterations [5] | Mitochondrial membrane depolarization (in words) ([3]; 1× and 2× IC50, 72 h)
C[C@@H]1[C@H](O)[C@@H](C)/C=C/C=C/C=C/C=C/C=C/C=C/C=C/[C@H](O[C@@H]2O[C@H](C)[C@@H](O)[C@H](N)[C@@H]2O)C[C@@H]2O[C@](O)(C[C@@H](O)C[C@@H](O)[C@H](O)CC[C@@H](O)C[C@@H](O)CC(=O)O[C@H]1C)C[C@H](O)[C@H]2C(=O)O [Amphotericin B, reference compound] | 14 ± 0.3 µM | plasma membrane rupture, alterations in the kinetoplast, and mitochondrial swelling | 213 ± 1 | −0.70 ± 0.01 | 193 ± 3 | −0.73 ± 0.02 | −0.018 to −0.73 | induced apoptosis as the main form of cell death | membrane rupture, chromatin condensation, and mitochondrial swelling | –
S=C(N/N=C/c1c[nH]c2ncccc12)Nc1ccccc1 [LT-73] | > 75 µM | significant alterations in the plasma membrane and flagellar pocket, chromatin condensation, mitochondrial swelling, and an increased number of intracellular vacuoles | 658 ± 9 | −0.07 ± 0.05 | 697 ± 7 | −0.02 ± 0.03 | −0.02 to −0.07 | predominantly induced AV+/PI− staining; also recorded: predominantly induced apoptosis; also recorded: able to induce phosphatidylserine externalization | disorganization of the plasma membrane, mitochondrial swelling, chromatin condensation, and the presence of numerous vacuoles | depolarization of the mitochondrial membrane; also recorded: induced a alteration in Δψm
N#Cc1ccc2[nH]cc(/C=N/NC(=S)Nc3ccc(Cl)cc3)c2c1 [LT-75] | > 75 µM | severe damage to the plasma membrane and cytoskeleton | 1425 ± 106 | 1 ± 0.23 | 1000 ± 21 | 0.41 ± 0.05 | – | predominance of AV+/PI− staining; also recorded: predominantly induced apoptosis; also recorded: able to induce phosphatidylserine externalization | extensive damage to the plasma membrane and cytoskeleton | –

— PMC12656565, “In Vitro and Ultrastructural Evaluation of the Cytotoxic and Antileishmanial Activities of Thiosemicarbazone Compounds Against Promastigotes and Axenic Amastigotes of Leishmania infantum” (Tropical Medicine and Infectious Disease, 2025)
